# Source: US11638765B2, “Double-labeled probe for molecular imaging and use thereof” (Deutsches Krebsforschungszentrum, priority 2017, dated 2023)
# Assays:
# [1] = Biodistribution (organ distribution) of 68Ga-labeled compounds in LNCaP-tumor bearing mice; type: in vivo, BALB/c nu/nu mice; conditions: 1 h p.i.
# Experimental: The precursor peptides [1 nmol in HEPES buffer (580 mg/ml), 40 μL] were added to 40 μL [^68Ga]Ga^3+ eluate (˜40 MBq). The pH was adjusted to 3.8 using 30% NaOH and 10% NaOH, respectively. The reaction mixture was incubated at 98° C. for 10 minutes. The radiochemical yield (RCY) was determined by HPLC.
# For the experimental tumor models 5×10^6 cells of LNCaP (in 50% Matrigel; Becton Dickinson, Heidelberg, Germany) were subcutaneously inoculated into the right trunk of 7- to 8-week-old male BALB/c nu/nu mice (Charles River). The tumors were allowed to grow until approximately 1 cm^3 in size. The ^68Ga-labeled compounds were injected into a tail vein (1-2 MBq; 60 pmol). At 1 h after injection the animals were sacrificed. Organs of interest were dissected, blotted dry, and weighed. The radioactivity was measured using a gamma counter and calculated as % ID/g. All animal experiments complied with the current laws of the Federal Republic of Germany.
# PSMA = PSMA (Homo sapiens, UniProt Q04609); conditions: radioligand of the competitive binding assay; cited from earlier work
# Chain of PSMA (Q04609 whole entry, species assumed): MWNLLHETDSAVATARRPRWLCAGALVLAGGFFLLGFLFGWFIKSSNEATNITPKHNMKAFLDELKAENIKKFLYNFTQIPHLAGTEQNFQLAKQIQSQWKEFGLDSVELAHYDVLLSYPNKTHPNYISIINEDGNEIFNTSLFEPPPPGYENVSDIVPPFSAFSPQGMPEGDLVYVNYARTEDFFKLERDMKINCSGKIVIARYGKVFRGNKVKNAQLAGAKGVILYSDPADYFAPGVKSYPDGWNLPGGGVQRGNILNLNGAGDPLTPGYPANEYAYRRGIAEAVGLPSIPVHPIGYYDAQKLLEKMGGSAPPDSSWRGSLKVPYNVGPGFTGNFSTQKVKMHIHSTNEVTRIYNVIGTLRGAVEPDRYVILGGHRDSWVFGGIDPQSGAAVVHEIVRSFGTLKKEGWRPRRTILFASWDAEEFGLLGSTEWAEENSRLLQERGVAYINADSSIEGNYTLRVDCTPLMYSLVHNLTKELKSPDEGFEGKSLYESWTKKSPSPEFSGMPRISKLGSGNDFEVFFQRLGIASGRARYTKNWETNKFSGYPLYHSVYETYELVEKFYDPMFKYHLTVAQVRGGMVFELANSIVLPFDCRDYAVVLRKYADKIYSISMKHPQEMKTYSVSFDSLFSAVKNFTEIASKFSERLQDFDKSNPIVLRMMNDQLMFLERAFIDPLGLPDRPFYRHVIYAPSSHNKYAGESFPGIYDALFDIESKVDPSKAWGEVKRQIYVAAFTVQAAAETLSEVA
# PSMA+ LNCaP cells = assay: Internalization experiments (surface-bound and internalized fractions); type: cell-based; conditions: 30 nM radiolabeled compound, 45 min
# Experimental: (§1) PSMA^+ LNCaP cells (ATCC CRL-1740) were cultured in RPMI medium supplemented with 10% fetal calf serum and 2 mmol/L L-glutamine (all from PAA). Cells were grown at 37° C. in humidified air with 5% CO2 and were harvested using trypsin-ethylenediaminetetraacetic acid (trypsin-EDTA; 0.25% trypsin, 0.02% EDTA, Invitrogen).
# For internalization experiments, 10^5 cells per well were seeded in poly-L-lysine coated 24-well cell culture plates 24 h before incubation. After washing, the cells were incubated with 30 nM of the radiolabeled compound for 45 min at 37° C. and at 4° C., respectively. Cellular uptake was terminated by washing 3 times with 1 mL of ice-cold PBS. To remove surface-bound radioactivity, cells were incubated twice with 0.5 mL glycine-HCl in PBS (50 mM, pH=2.8) for 5 min. The cells were washed with 1 mL of ice-cold PBS and lysed using 0.3 N NaOH (0.5 mL). The surface-bound and the internalized fractions were measured in a gamma counter. The cell uptake was calculated as percent of the initially added radioactivity bound to 10^5 cells [% ID/10^5 cells].
# PSMA (PSMA+ LNCaP cells) = molecular target: T1, PSMA (PSMA+ LNCaP cells) (Homo sapiens, UniProt Q04609); assay: Competitive cell binding assay against 68Ga-labeled PSMA-10 radioligand; conditions: radioligand [68Ga]Ga-PSMA-10 0.75 nM, metal-free ligand
# T1 construct: host or cells: LNCaP cells
# T1 sequence (Q04609 whole entry): as the sequence (Q04609 whole entry, species assumed) above
# Experimental: as §1
# The competitive cell binding assay and internalization experiments were performed as described previously (4). Briefly, the cells (10^5 per well) were incubated with a 0.75 nM solution of ^68Ga-labeled radioligand [Glu-urea-Lys(Ahx)]2-HBED-CC (PSMA-10, precursor ordered from ABX, Radeberg, Germany) in the presence of 12 different concentrations of analyte (0-5000 nM, 100 μL/well). After incubation, the mixture was removed and the wells were washed 3 times with PBS using a multiscreen vacuum manifold (Millipore, Billerica, Mass.). Cell-bound radioactivity was measured using a gamma counter (Packard Cobra II, GMI, Minn., USA). The 50% inhibitory concentration (IC50) values were calculated by fitting the data using a nonlinear regression algorithm (GraphPad Software).
molecule,measurement,setting,value
^68Ga-Glu-urea-Lys-2-Nal-Chx-Lys(IRDye800CW)-DOTA,Kidney uptake in comparison to the reference,[1]; in words,significantly reduced
same,Tumor uptake in comparison to the reference,[1]; in words,comparable
same,"Organ distribution, Blood (Mean)","[1]; tail vein, 60 pmol, n = 3",1.14 % ID/g
same,"Organ distribution, Brain (Mean)","[1]; tail vein, 60 pmol, n = 3",0.07 % ID/g
same,"Organ distribution, Heart (Mean)","[1]; tail vein, 60 pmol, n = 3",0.51 % ID/g
same,"Organ distribution, Intestine (Mean)","[1]; tail vein, 60 pmol, n = 3",0.43 % ID/g
same,"Organ distribution, Kidney (Mean)","[1]; tail vein, 60 pmol, n = 3",65.64 % ID/g
same,"Organ distribution, Liver (Mean)","[1]; tail vein, 60 pmol, n = 3",0.95 % ID/g
same,"Organ distribution, Lung (Mean)","[1]; tail vein, 60 pmol, n = 3",1.47 % ID/g
same,"Organ distribution, Muscle (Mean)","[1]; tail vein, 60 pmol, n = 3",0.34 % ID/g
same,"Organ distribution, Spleen (Mean)","[1]; tail vein, 60 pmol, n = 3",2.82 % ID/g
same,"Organ distribution, Tumor (Mean)","[1]; LNCaP tumor, tail vein, 60 pmol, n = 3",4.13 % ID/g
[Glu-urea-Lys(Ahx)]2-HBED-CC [[^68Ga]Ga -PSMA-10],Kd,PSMA,2.1 nM
CC1(C)C(/C=C/C2=C(Oc3ccc(S(=O)(=O)O)cc3)C(=C/C=C3/N(CCCCS(=O)(=O)O)c4ccc(S(=O)(=O)O)cc4C3(C)C)/CCC2)=[N+](CCCCCC(=O)NCCCC[C@H](NC(=O)CN2CCN(CC(=O)O)CCN(CC(=O)O)CCN(CC(=O)O)CC2)C(=O)NC[C@H]2CC[C@H](C(=O)N[C@@H](Cc3ccc4ccccc4c3)C(=O)NCCCC[C@H](NC(=O)N[C@@H](CCC(=O)O)C(=O)O)C(=O)O)CC2)c2ccc(S(=O)(=O)[O-])cc21 (stereo in doubt) [Glu-urea-Lys-2-Nal-Chx-Lys(IRDye800CW)-DOTA],Specific cell surface bound,PSMA+ LNCaP cells,25.51 ± 9.73 % ID/10^5 cells
same,Specific internalized,PSMA+ LNCaP cells,27.64 ± 12.80 % ID/10^5 cells
same,IC50,PSMA (PSMA+ LNCaP cells),15.9 ± 5.46 nM
